The values below come from patent US20080255041A1, “Treatment of annulus fibrosis defects” (EBI, L.P., priority 2007, published 2008).

In this assay the test system is annulus fibrosis of the defective disc. As to the kind of experiment: Injection of the composition into the annulus fibrosis of a patient with degenerative disc disease. The class given is in vivo, human. To be noted: patient with transverse annulus fibrosis tear between fifth lumbar and sacrum; F2A4-K—NS in hyaluronic acid carrier injected by syringe. The source says: A syringe containing the synthetic molecule F2A4-K—NS and a hyaluronic acid carrier is used to inject the composition into the annulus fibrosis of the defective disc. […] In the above example, collagen, heparin sulfate or propylene glycol is substituted for hyaluronic acid, to form gel carriers, with substantially similar results.

Regarding “H—YRSRKYSSWYVALKRK(H—YRSKYSSWYVALKR)-Ahx-Ahx-Ahx-RKRLDRIAR—NH2 [F2A4-K—NS]”, the “angiogenesis at the site of the annulus fibrosis defect” value is recorded as “promotes angiogenesis” and the “degeneration of the disc / closure of the annulus fibrosis tear” value was “prevents further degeneration of the disc”.
